Source: patent US20230265151A1, “GIP/GLP1 CO-AGONIST COMPOUNDS” (priority 2020, published 2023)
Where two headings read alike, the source gives them in different places.

Key:
Type in all cases: cell-based
hGIPR = biological target: T1, hGIPR (Homo sapiens, UniProt P48546); experiment: Functional cAMP formation (HTRF) in HEK-293 clonal cells expressing hGIPR, 0.1% bovine casein, without or with 1.0% human serum albumin; conditions: for Emax: read-out: hGIPR Emax, % ± SEM; for EC50: geometric mean
T1 construct: expressed in transfected cells
T1 sequence (P48546 22-466): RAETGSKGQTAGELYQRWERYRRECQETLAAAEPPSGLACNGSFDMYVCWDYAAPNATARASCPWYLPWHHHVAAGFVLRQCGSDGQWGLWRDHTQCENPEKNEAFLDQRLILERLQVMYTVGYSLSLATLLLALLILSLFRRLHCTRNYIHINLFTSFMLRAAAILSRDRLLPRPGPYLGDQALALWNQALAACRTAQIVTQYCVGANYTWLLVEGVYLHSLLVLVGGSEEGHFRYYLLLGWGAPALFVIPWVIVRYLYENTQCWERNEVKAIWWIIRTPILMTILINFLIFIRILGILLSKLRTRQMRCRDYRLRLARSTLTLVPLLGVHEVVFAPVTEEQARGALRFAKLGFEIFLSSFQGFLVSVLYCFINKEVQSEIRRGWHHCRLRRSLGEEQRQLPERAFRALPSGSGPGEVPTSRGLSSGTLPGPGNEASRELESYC
In short: (§1)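 Cells were stimulated with peptide for 30 min at 37° C, then intracellular cAMP was measured by competitive HTRF (665/620 nm ratio) and converted to nM using a cAMP standard curve. Relative EC50 and Emax came from four-parameter logistic fits of percent maximal response against peptide concentration.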

hGLP-1R = hGLP-1R (Homo sapiens, UniProt P43220); experiment: Functional cAMP formation (HTRF) in HEK-293 clonal cells expressing hGLP-1R, 0.1% bovine casein, without or with 1.0% human serum albumin; design: expressed in transfected cells; conditions: for EC50: geometric mean, read-out: hGLP-1R EC50, nM (SEM, n); for Emax: 0.1% bovine casein, arithmetic mean
In short: as §1

hGCGR = biological target: T2, hGCGR (Homo sapiens, UniProt P47871); experiment: Functional cAMP formation (HTRF) in HEK-293 clonal cells expressing hGCGR, 0.1% bovine casein, without or with 1.0% human serum albumin; conditions: geometric mean
T2 construct: expressed in transfected cells
In short: as §1

[1] = HEK293, 0.1% bovine casein and 1.0% human serum albumin, 37° C., percent of maximal response to GIP(1-42)NH2
[2] = 0.1% bovine casein and 1.0% human serum albumin, 37° C.
[3] = HEK293, percent of maximal response to GLP-1(7-36)NH2, 37° C., read-out: hGLP-1R Emax, % ± SEM
[4] = cAMP, incubated at 37° C., 0.1% bovine casein (no human serum albumin)
[5] = 0.1% bovine casein and 1.0% human serum albumin, 37° C., read-out: hGCGR EC50, nM (SEM, n)
[6] = cAMP, incubated at 37° C., 0.1% bovine casein (no human serum albumin), read-out: hGCGR EC50, nM (SEM, n)
[7] = 0.1% bovine casein and 1.0% human serum albumin, 37° C., read-out: hGIPR EC50, nM (SEM, n)
[8] = HEK293, percent of maximal response to GIP(1-42)NH2, 37° C., 0.1% bovine casein, arithmetic mean

T2 sequence (P47871 26-477): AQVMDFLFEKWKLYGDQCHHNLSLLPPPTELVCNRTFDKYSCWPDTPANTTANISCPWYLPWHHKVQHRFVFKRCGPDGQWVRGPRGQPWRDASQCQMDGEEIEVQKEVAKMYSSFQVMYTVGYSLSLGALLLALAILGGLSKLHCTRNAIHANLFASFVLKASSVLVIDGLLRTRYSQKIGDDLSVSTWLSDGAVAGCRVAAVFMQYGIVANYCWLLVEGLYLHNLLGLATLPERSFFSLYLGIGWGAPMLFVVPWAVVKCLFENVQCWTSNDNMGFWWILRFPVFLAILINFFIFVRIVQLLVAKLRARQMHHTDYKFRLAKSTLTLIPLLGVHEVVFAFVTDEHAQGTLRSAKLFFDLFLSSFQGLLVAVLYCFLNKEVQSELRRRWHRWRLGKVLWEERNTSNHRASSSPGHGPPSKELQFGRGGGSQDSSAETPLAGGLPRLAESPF
hGLP-1R, sequence (P43220 24-463): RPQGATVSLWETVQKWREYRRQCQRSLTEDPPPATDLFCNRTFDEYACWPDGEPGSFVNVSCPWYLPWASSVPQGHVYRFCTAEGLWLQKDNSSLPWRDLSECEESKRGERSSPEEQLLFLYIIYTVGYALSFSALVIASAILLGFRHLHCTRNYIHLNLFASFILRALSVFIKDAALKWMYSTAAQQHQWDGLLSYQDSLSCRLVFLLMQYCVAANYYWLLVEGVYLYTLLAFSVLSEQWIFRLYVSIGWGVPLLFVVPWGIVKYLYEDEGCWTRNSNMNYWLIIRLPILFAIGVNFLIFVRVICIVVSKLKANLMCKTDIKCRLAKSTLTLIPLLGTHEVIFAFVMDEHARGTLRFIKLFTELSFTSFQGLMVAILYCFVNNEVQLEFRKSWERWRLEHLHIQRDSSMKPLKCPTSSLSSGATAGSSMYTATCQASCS

| SMILES | Emax (hGIPR; [1]) [%] | EC50 (hGLP-1R; [2]) [nM] | Emax (hGLP-1R; [3]) [%] | EC50 (hGLP-1R; [4]) [nM] | EC50 (hGCGR; [5]) [nM] | EC50 (hGCGR; [6]) [nM] | EC50 (hGIPR; [7]) [nM] | Emax (hGIPR; [8]) [%] | EC50 (hGIPR; cAMP, incubated at 37° C., 0.1% bovine casein (no human serum albumin), read-out: hGIPR EC50, nM (SEM, n)) [nM] | EC50 (hGIPR; hGIPR EC50, nM (SEM, n), cAMP, incubated at 37° C., 0.1% bovine casein (no human serum albumin)) [nM] | Emax (hGLP-1R; HEK293, read-out: hGLP-1R Emax, % ± SEM, percent of maximal response to GLP-1(7-36)NH2, 37° C.) [%] | EC50 (hGCGR; hGCGR EC50, nM (SEM, n), cAMP, incubated at 37° C., 0.1% bovine casein (no human serum albumin)) [nM] |
| --- | --- | --- | --- | --- | --- | --- | --- | --- | --- | --- | --- | --- |
| CCCCCCCCCCCCCCCC(=O)N[C@@H](CCC(=O)NCCOCCOCC(=O)NCCOCCOCC(=O)NCCCC[C@H](NC(=O)[C@H](CCCN)NC(=O)[C@H](CC(=O)O)NC(=O)[C@H](CC(C)C)NC(=O)[C@](C)(CC(C)C)NC(=O)[C@@H](NC(=O)[C@H](CO)NC(=O)[C@H](Cc1ccncc1)NC(=O)[C@H](CC(=O)O)NC(=O)[C@H](CO)NC(=O)[C@@H](NC(=O)[C@](C)(Cc1ccccc1F)NC(=O)[C@@H](NC(=O)CNC(=O)[C@H](CCC(=O)O)NC(=O)C(C)(C)NC(=O)[C@@H](N)Cc1ccc(O)cc1)[C@@H](C)O)[C@@H](C)O)[C@@H](C)CC)C(=O)N[C@@H](C)C(=O)N[C@@H](CCC(N)=O)C(=O)NC(C)(C)C(=O)N[C@@H](CCC(=O)O)C(=O)N[C@@H](Cc1ccccc1)C(=O)N[C@H](C(=O)N[C@H](CCC(=O)O)C(=O)N[C@@H](CCCCNC(=O)COCCOCCNC(=O)COCCOCCNC(=O)CC[C@H](NC(=O)CCCCCCCCCCCCCCC)C(=O)O)C(=O)N[C@@H](CC(C)C)C(=O)N[C@H](C(=O)N[C@@H](CCC(=O)O)C(=O)NCC(=O)NCC(=O)N1CCC[C@H]1C(=O)N[C@@H](CO)C(=O)N[C@@H](CO)C(=O)NCC(=O)N[C@@H](C)C(=O)N1CCC[C@H]1C(=O)N1CCC[C@H]1C(=O)N1CCC[C@H]1C(=O)N[C@@H](CO)C(N)=O)[C@@H](C)CC)[C@@H](C)CC)C(=O)O [Example 32] | 98.2 | 1.73 | 119 | 0.0063 | > 9950 | > 9950 |  |  |  |  |  |  |
| CC[C@H](C)[C@H](NC(=O)[C@H](CC(C)C)NC(=O)[C@](C)(Cc1ccc(O)cc1)NC(=O)[C@@H](CCC(=O)O)NC(=O)[C@@H](NC(=O)[C@H](Cc1ccccc1)NC(=O)[C@H](CCC(=O)O)NC(=O)C(C)(C)NC(=O)[C@H](CCC(N)=O)NC(=O)[C@H](C)NC(=O)[C@H](CCCCNC(=O)CC[C@H](NC(=O)COCCOCCNC(=O)CCCCCCCCCCCCC(=O)O)C(=O)O)NC(=O)[C@H](CCCN)NC(=O)[C@H](CC(=O)O)NC(=O)[C@H](CC(C)C)NC(=O)[C@](C)(CC(C)C)NC(=O)[C@@H](NC(=O)[C@H](CO)NC(=O)[C@H](Cc1ccncc1)NC(=O)[C@H](CC(=O)O)NC(=O)[C@H](CO)NC(=O)[C@@H](NC(=O)[C@](C)(Cc1ccccc1F)NC(=O)[C@@H](NC(=O)CNC(=O)[C@H](CCC(=O)O)NC(=O)C(C)(C)NC(=O)[C@@H](N)Cc1ccc(O)cc1)[C@@H](C)O)[C@@H](C)O)[C@@H](C)CC)[C@@H](C)CC)C(=O)N[C@@H](CCC(=O)O)C(=O)NCC(=O)NCC(=O)N[C@@H](CCCCNC(=O)CC[C@H](NC(=O)COCCOCCNC(=O)CCCCCCCCCCCCC(=O)O)C(=O)O)C(=O)N[C@@H](CO)C(=O)N[C@@H](CO)C(=O)NCC(=O)N[C@@H](C)C(=O)N1CCC[C@H]1C(=O)N1CCC[C@H]1C(=O)N1CCC[C@H]1C(=O)N[C@@H](CO)C(N)=O [Example 42] | 91.1 ± 0.67 | 26.7 |  |  | > 9950 | > 9950 | 1 | 97.8 ± 7.18 | 0.0103 |  |  |  |
| CC[C@H](C)[C@H](NC(=O)[C@H](CC(C)C)NC(=O)[C@](C)(Cc1ccccc1)NC(=O)[C@H](CCCCNC(=O)COCCOCCNC(=O)COCCOCCNC(=O)CC[C@H](NC(=O)CCCCCCCCCCCCC(=O)O)C(=O)O)NC(=O)[C@@H](NC(=O)[C@](C)(Cc1ccccc1)NC(=O)[C@H](CCC(=O)O)NC(=O)C(C)(C)NC(=O)[C@H](CCC(N)=O)NC(=O)[C@H](C)NC(=O)[C@H](CCCCNC(=O)COCCOCCNC(=O)COCCOCCNC(=O)CC[C@H](NC(=O)CCCCCCCCCCCCC(=O)O)C(=O)O)NC(=O)[C@H](CCCN)NC(=O)[C@H](CC(=O)O)NC(=O)[C@H](CC(C)C)NC(=O)[C@](C)(CC(C)C)NC(=O)[C@@H](NC(=O)[C@H](CO)NC(=O)[C@@H](NC(=O)[C@H](CC(=O)O)NC(=O)[C@H](CO)NC(=O)[C@@H](NC(=O)[C@](C)(Cc1ccccc1F)NC(=O)[C@@H](NC(=O)CNC(=O)[C@H](CCC(=O)O)NC(=O)C(C)(C)NC(=O)[C@@H](N)Cc1ccc(O)cc1)[C@@H](C)O)[C@@H](C)O)C(C)C)[C@@H](C)CC)[C@@H](C)CC)C(=O)N[C@@H](CCC(=O)O)C(=O)NCC(=O)NCC(=O)N1CCC[C@H]1C(=O)N[C@@H](CO)C(=O)N[C@@H](CO)C(=O)NCC(=O)N[C@@H](C)C(=O)N1CCC[C@H]1C(=O)N1CCC[C@H]1C(=O)N1CCC[C@H]1C(=O)N[C@@H](CO)C(N)=O [Example 122] |  |  |  |  |  |  |  |  |  | 0.064 | 94.3 | > 9950 |
| CC[C@H](C)[C@H](NC(=O)[C@H](CC(C)C)NC(=O)[C@H](CCCCNC(=O)COCCOCCNC(=O)COCCOCCNC(=O)CC[C@H](NC(=O)CCCc1ccc(C(C)(C)C)cc1)C(=O)O)NC(=O)[C@@H](CCC(=O)O)NC(=O)[C@@H](NC(=O)[C@H](Cc1ccccc1)NC(=O)[C@H](CCC(=O)O)NC(=O)C(C)(C)NC(=O)[C@H](CCC(N)=O)NC(=O)[C@H](C)NC(=O)[C@H](CCCCNC(=O)COCCOCCNC(=O)COCCOCCNC(=O)CC[C@H](NC(=O)CCCc1ccc(C(C)(C)C)cc1)C(=O)O)NC(=O)[C@H](CCCN)NC(=O)[C@H](CC(=O)O)NC(=O)[C@H](CC(C)C)NC(=O)[C@](C)(CC(C)C)NC(=O)[C@@H](NC(=O)[C@H](CO)NC(=O)[C@H](Cc1ccncc1)NC(=O)[C@H](CC(=O)O)NC(=O)[C@H](CO)NC(=O)[C@@H](NC(=O)[C@](C)(Cc1ccccc1F)NC(=O)[C@@H](NC(=O)CNC(=O)[C@H](CCC(=O)O)NC(=O)C(C)(C)NC(=O)[C@@H](N)Cc1ccc(O)cc1)[C@@H](C)O)[C@@H](C)O)[C@@H](C)CC)[C@@H](C)CC)C(=O)N[C@@H](CCC(=O)O)C(=O)NCC(=O)NCC(=O)N1CCC[C@H]1C(=O)N[C@@H](CO)C(=O)N[C@@H](CO)C(=O)NCC(=O)N[C@@H](C)C(=O)N1CCC[C@H]1C(=O)N1CCC[C@H]1C(=O)N1CCC[C@H]1C(=O)N[C@@H](CO)C(N)=O [Example 67] | 91.9 | 12 | 91.7 | 2.63 | > 9950 | > 9950 | 0.0417 | 95 |  |  |  |  |
